Experiment in all cases: NCI anticancer screen, dose series, 48 h
The test system of test [1] is A549 NSCLC.
In test [2] the test system is COLO 205 colon.
In test [3] the test system is HCT-116 colon.
Test [4] has as its system HOP-62 NSCLC.
In test [5] the test system is IGROV1 ovarian.
For test [6], the system named is KM12 colon.
Test [7] has as its system MOLT-4 leukemia.
The test system of test [8] is NCI-H522 lung.
The subject of test [9] is OVCAR-5 ovarian.
In test [10] the test system is SK-OV-3 ovarian.

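Each compound was tested at five concentrations against cells in 96-well plates for 48 hours. TGI: concentration producing complete growth inhibition.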

`COc1cccc(NC(=O)CC(=O)NN)c1`: the TGI in [1], in test [2], in test [3], in [4], in [5] and in test [6] was over 100 µM in each case. Further, the TGI in test [7], in [8], in [9] and in test [10] was over 100 µM in each case.
Take `CCOC(=O)C1=C(O)CC(=O)N=C1N1CCCC1`: the TGI in [1], in test [2], in test [3], in test [4], in test [5] and in test [6] was over 100 µM throughout. Besides, the TGI in [7], in [8], in [9] and in test [10] was over 100 µM in each case.
As to `CCN(CC)c1c(C(C)(C)C)c(=O)n2ccsc2c1OC(C)=O`, the TGI in test [1] is 28.2 µM; in test [2], 31.8 µM; in [3], 26.5 µM; in test [4] it was 26.1 µM; in test [5] it was 31.2 µM; in [6], 30.6 µM. In addition, the TGI is over 100 µM in [7], 27.7 µM in test [8], 29.7 µM in test [9] and 36 µM in test [10].
Take `Cc1nn2c(=O)c([N+](=O)[O-])c(/C=C/c3ccc(F)cc3)nc2s1`: the TGI came out at 24.3 µM in [1]; 16.7 µM in [2]; 15.1 µM in [3]; 22.9 µM in [4]; 22.6 µM in test [5]; 16.3 µM in test [6]. Also, the TGI in test [7] is 28.6 µM; in test [8] it was 18 µM; in test [9], 18 µM; in test [10], over 31.6 µM.
With `c1ccc(C(Oc2noc3ccccc23)c2ccccc2)cc1`, the TGI was over 100 µM in test [1]; 37 µM in test [2]; over 100 µM in [3]; over 100 µM in test [4]; over 100 µM in test [5]; over 100 µM in [6]. Also, the TGI in test [7] was 71.7 µM; in test [8], over 100 µM; in test [9], over 100 µM; in test [10] it was over 100 µM.
`CCCOC(=O)c1cc(O)c(O)c(O)c1`: the TGI was over 100 µM in [1]; over 100 µM in [2]; 45.3 µM in test [3]; over 100 µM in test [4]; over 100 µM in test [5]; over 100 µM in [6]. Also, the TGI in test [7] was over 100 µM; in test [8], 77 µM; in [9] it was over 100 µM; in [10], over 100 µM.
In the case of `Cc1nc2ccc(NCCN(C)C)c3c(=O)c4ccccc4n1c23`, the TGI is 6.42 µM in [1]; 11.8 µM in [2]; 13.8 µM in test [3]; 19.1 µM in test [4]; 16.6 µM in test [5]; 13.1 µM in test [6]. For the same molecule, the TGI was determined as 22.2 µM in test [7], 9.91 µM in test [8], 21 µM in [9] and 36.7 µM in test [10].
`COC(=O)[C@@H]1c2c(oc3cc(CO)cc(O)c3c2=O)C=C[C@H]1O`: the TGI in test [1] is 34.1 µM; in [2], 29 µM; in test [3] it was 5.98 µM; in test [4], 40 µM; in [5], 26.2 µM; in [6], 14.8 µM. Besides, the TGI in test [7] is over 100 µM; in test [8], 3.64 µM; in [9] it was 22.8 µM; in [10] it was 35.4 µM.
As to `COC(=O)/C=C(C)/C=C\COC1CCCCO1` (stereo not given), the TGI in test [1], in test [2], in [3], in test [4], in [5] and in test [6] was over 100 µM throughout. For the same molecule, the TGI in test [7], in test [8], in test [9] and in [10] was over 100 µM throughout.
As for `O=c1cc(NNc2cccc3ccccc23)[nH]c(=O)[nH]1`, the TGI came out at 33.4 µM in [1]; 31.3 µM in [2]; 31.2 µM in test [3]; 30.9 µM in test [4]; 29.2 µM in [5]; 29.9 µM in test [6]. Also, the TGI was 56.8 µM in test [7], 28.7 µM in test [8], 31.1 µM in test [9] and 88.6 µM in test [10].
For `CC(C)=CCC[C@@H](C)C1=C(O)C(N[C@H](C)c2ccccc2)=C(C)C(=O)C1=O`, the TGI in test [1] is 14.7 µM; in test [2] it was 20 µM; in test [3], 20.4 µM; in test [4] it was 20 µM; in test [5], over 36.2 µM; in test [6], over 46 µM. Besides, the TGI in test [7] is over 30.1 µM; in [8], 8.67 µM; in [9], over 72.1 µM; in [10], 45.4 µM.

The values are drawn from PubChem BioAssay (NCI).
